The target of this assay is T1, RET M918T (Homo sapiens, UniProt P07949, M918T).
T1 construct: purchased Thermo Fisher Scientific (Life Technologies) SelectScreen
Nature of the assay: SelectScreen LanthaScreen. As to conditions: read-out: % displacement. Type of assay: binding. An outline of the steps:
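Percent values come from Thermo SelectScreen profiling of NU5455, combining activity and binding assays. CSF1R was run in Z'LYTE format at Km app ATP, and CAMK1 in Adapta format with ATP listed at 10.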

T1 sequence (P07949 29-1114 M918T): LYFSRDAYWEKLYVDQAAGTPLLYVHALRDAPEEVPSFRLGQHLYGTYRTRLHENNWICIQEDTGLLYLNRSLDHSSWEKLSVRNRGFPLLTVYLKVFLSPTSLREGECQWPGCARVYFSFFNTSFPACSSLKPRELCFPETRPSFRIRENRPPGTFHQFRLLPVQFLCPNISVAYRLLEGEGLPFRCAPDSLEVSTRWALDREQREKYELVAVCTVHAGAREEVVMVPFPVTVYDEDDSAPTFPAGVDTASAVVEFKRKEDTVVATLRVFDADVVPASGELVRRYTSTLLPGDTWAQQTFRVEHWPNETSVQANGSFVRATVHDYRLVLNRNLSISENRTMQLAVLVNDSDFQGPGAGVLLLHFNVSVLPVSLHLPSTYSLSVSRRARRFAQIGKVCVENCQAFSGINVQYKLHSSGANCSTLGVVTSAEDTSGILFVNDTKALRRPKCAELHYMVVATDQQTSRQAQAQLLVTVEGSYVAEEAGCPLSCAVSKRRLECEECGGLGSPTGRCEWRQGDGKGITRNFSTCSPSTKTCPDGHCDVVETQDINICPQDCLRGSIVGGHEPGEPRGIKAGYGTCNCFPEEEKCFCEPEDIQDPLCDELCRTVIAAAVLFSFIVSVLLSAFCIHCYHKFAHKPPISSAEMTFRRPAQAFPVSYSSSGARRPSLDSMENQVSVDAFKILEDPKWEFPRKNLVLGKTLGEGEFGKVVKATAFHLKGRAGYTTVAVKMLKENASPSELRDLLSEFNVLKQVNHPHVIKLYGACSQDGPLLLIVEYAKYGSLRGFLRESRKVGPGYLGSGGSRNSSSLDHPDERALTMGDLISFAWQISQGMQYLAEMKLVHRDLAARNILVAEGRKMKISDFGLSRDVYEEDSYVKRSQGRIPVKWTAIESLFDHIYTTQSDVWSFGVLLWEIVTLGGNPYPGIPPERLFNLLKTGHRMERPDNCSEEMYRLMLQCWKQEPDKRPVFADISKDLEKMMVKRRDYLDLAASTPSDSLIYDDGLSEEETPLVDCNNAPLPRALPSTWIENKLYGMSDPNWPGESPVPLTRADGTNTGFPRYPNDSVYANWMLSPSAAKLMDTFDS

As to `CN(C(=O)CN1CCOCC1)c1ccc2sc3c(-c4cccc5c(=O)cc(N6CC7CCC(C6)O7)oc45)cccc3c2c1` [NU5455], the inhibition at 1 µM was -3.5%.
